Test results: patent US4621073A, “Cyclic peptides having somatostatin activity” (Hoechst Aktiengesellschaft, priority 1983, dated 1986)
Non-standard residues stand in square brackets, D forms with d. Residues, ends and D or L forms follow the SMILES beside them.

How the values were obtained:
[1] = test system: blood glucose; experiment: potentiation of the hypoglycemic effect of insulin in adrenalectomized rats; assay type: in vivo, rat
[2] = test system: gastric acid; experiment: reduction of gastric acid after intravenous administration to the rat; assay type: in vivo; conditions: i.v. dose of 30 μg/kg
Protocol: The peptides according to the invention have the inhibitory properties of somatostatin, but their duration of action is considerably longer at lower doses. For example, after intravenous administration to the rat, these peptides reduce gastric acid with an ED50 of about 5 μg/kg. The reduction in gastric acid is maintained for 2 hours. […] A reduction in gastric acid is only brought about by infusing somatostatin. […] The new compounds can also be administered orally and intranasally. However, in these instances considerably higher doses are necessary because of the poorer absorption.

## C[C@@H](O)[C@@H]1NC(=O)[C@H](CCCCN)NC(=O)[C@@H](Cc2c[nH]c3ccccc23)NC(=O)[C@H](Cc2ccccc2)NC(=O)[C@@H]2CCCN2C(=O)[C@H](Cc2ccccc2)NC1=O [cyclo-(Pro-Phe-D-Trp-Lys-Thr-Phe)] (cyclo(PF[dW]KTF))
[1]; dose of as much as 0.318 μg/kg^-1. min^-1
  effect on blood glucose: completely ineffective

## C[C@H](N)C(=O)NCC(=O)N[C@H]1CSSC[C@@H](C(=O)O)NC(=O)[C@H](CO)NC(=O)[C@H]([C@@H](C)O)NC(=O)[C@H](Cc2ccccc2)NC(=O)[C@H]([C@@H](C)O)NC(=O)[C@H](CCCCN)NC(=O)[C@H](Cc2c[nH]c3ccccc23)NC(=O)[C@H](Cc2ccccc2)NC(=O)[C@H](Cc2ccccc2)NC(=O)[C@H](CC(N)=O)NC(=O)[C@H](CCCCN)NC1=O [somatostatin, Somatostatin]
[2]
  effect on gastric acid: no effect whatever

## cyclo-(Aoc-Phe-D-Trp-Lys-Val-Phe)
[1]
  potentiation of the hypoglycemic effect of insulin, effect relative to cyclo-(Pro-Phe-D-Trp-Lys-Thr-Phe): at least twice
[1]; dose of 0.07 μg/kg^-1.min^-1
  reduction of blood glucose: up to 24%
